Laboratory results: patent US20240174690A1, “ANNULATED 2-AMINO-3-CYANO THIOPHENES AND DERIVATIVES FOR THE TREATMENT OF CANCER” (BOEHRINGER INGELHEIM INTERNATIONAL GMBH, priority 2021, published 2024)
Read-outs that look alike come from different tables or passages of the source.

Tests used:
[1] = system: KRAS G12D-dependent Ba/F3 cells; test: Ba/F3 proliferation assay, KRAS G12D; assay type: cell-based; conditions: AlamarBlue
Summary of the method: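 IL-3-independent Ba/F3 lines carrying retrovirally introduced KRAS G12C, G12D or G12V; puromycin withdrawn ~10 days before assay. Duplicate treatments, AlamarBlue fluorescence readout, curve-fit analysis.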

[2] = system: NCI-H2122 cells; test: NCI-H2122 CTG proliferation assay (120 h) (NSCLC, G12C); assay type: cell-based
Summary of the method: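 Proliferation was read by CellTiter-Glo luminescence after 120 h of compound exposure, starting one day after seeding 200 NCI-H2122 (G12C) cells per well in RPMI/10% FCS. RLU relative to DMSO wells gave percent viability, and four-parameter nonlinear regression gave IC50.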

[3] = system: SK-CO-1 cells; test: SK-CO-1 CTG proliferation assay (120 h) (CRC, G12V); assay type: cell-based; conditions: SK-CO-1 cells (CRC, G12V), CTG 120 h
Summary of the method: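 Compound exposure lasted 120 h in KRAS G12V SK-CO-1 cells seeded overnight at 500 cells/well in 10% FCS EMEM. CellTiter-Glo RLU normalised to DMSO wells gave percent viability, and a four-parameter model fit yielded IC50.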

[4] = system: LOVO cells; test: LOVO CTG proliferation assay (120 h) (CRC, G13D); assay type: cell-based; conditions: CTG 120 h
Summary of the method: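 IC50 comes from a four-parameter fit of CellTiter-Glo viability, expressed as RLU relative to DMSO wells. Compound exposure lasted 120 h in LOVO cells seeded the day before at 1000 cells/well in DMEM with 10% fetal calf serum.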

[5] = Plasma protein binding assay (PPB), equilibrium dialysis, 10% FCS in PBS; assay type: in vitro ADME; conditions: for fraction unbound: bovine, read-out: PPB 10% FCS (% fu)
Summary of the method: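 Test compound (1-10 μmol/L) in 10% FCS in PBS was dialysed for 3-5 h at 37° C versus PBS ± dextran across a semipermeable membrane. LC-MS of both compartments after protein precipitation gave Cserum and Cbuffer, from which the unbound fraction fu was derived.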

[6] = molecular target: CYP3A4 (Homo sapiens (Human), UniProt P08684); test: Mechanism based inhibition of CYP3A4 assay (MBI 3A4); assay type: in vitro ADME; conditions: hydroxy-midazolam formation after 30 min vs 0 min preincubation, 25 uM, human liver microsomes
Summary of the method: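 Readout is hydroxy-midazolam formed after 30 min preincubation relative to 0 min, measured by LC/MS-MS after acetonitrile quench. Following preincubation, samples diluted 1:10 and incubated 15 min with midazolam substrate.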

Chain of CYP3A4 (P08684 whole entry): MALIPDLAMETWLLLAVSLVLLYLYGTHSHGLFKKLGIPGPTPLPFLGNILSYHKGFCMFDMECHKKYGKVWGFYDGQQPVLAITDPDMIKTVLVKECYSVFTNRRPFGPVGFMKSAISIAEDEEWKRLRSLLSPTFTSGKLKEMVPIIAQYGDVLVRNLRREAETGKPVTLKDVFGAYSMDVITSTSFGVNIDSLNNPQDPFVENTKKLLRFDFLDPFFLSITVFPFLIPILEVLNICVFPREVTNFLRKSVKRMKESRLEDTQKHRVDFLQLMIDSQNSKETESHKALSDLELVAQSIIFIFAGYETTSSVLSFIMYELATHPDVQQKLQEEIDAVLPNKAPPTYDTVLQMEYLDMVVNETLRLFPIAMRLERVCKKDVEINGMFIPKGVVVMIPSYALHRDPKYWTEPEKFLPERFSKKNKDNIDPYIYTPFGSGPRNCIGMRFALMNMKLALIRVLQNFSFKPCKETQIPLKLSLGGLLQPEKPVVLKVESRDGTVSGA

Row | Structure (SMILES) | IC50 ([1]; 72 h) | IC50 [2] | IC50 [3] | IC50 [4] | PPB 10% FCS (% fu) ([5]; fraction unbound) | MBI 3A4 [6] | IC50 ([1]; Mus musculus, BaF3, 72 h) | fraction unbound [5] | IC50 ([2]; Homo sapiens) | IC50 ([3]; Homo sapiens) | IC50 ([4]; Homo sapiens)
1 | C[C@H](Oc1cc(-c2ccn(C)n2)nc(-c2onc3c2CCC[C@@]32CCCc3sc(N)c(C#N)c32)n1)[C@@H]1CCCN1C [I-21] | 14 nM | 1430 nM | 30 nM | 128 nM | 83 % fu | 40% |  |  |  |  | 
2 | C[C@H](Oc1nc(-c2onc3c2CCC[C@@]32CCCc3sc(N)c(C#N)c32)cc(N2CCNC3(CC3)C2)n1)[C@@H]1CCCN1C [I-2] |  |  |  |  |  | 36% | 124 nM | 0.69 |  |  | 
3 | C[C@H](Oc1cc(N2C[C@H]3CN(C)C[C@H]3C2)nc(-c2noc3c2CCC[C@@]32CCCc3sc(N)c(C#N)c32)n1)[C@@H]1CCCN1C [II-33] |  |  |  |  |  |  | 82 nM | 0.68 | 4120 nM | 1050 nM | 737 nM
4 | CN[C@H]1CCN(c2cc(O[C@@H](C)[C@@H]3CCCN3C)nc(-c3noc4c3CCC[C@@]43CCCc4sc(N)c(C#N)c43)n2)C1 [II-35] |  |  |  |  |  |  | 82 nM | 0.77 | 4800 nM | 5730 nM | 1690 nM
5 | C[C@H](O)Cn1ccc(-c2cc(O[C@@H](C)[C@@H]3CCCN3C)nc(-c3onc4c3CCC[C@@]43CCCc4sc(N)c(C#N)c43)n2)n1 [I-31] |  |  |  |  |  | 67% | 43 nM | 0.53 |  |  | 
6 | C[C@H](Oc1cc(N2CCNC3(CCC3)C2)nc(-c2noc3c2CCC[C@@]32CCCc3sc(N)c(C#N)c32)n1)[C@@H]1CCCN1C [II-40] |  |  |  |  |  |  | 7 nM | 0.53 | 1420 nM | 488 nM | 508 nM
7 | C[C@H](Oc1nc(-c2noc3c2CCC[C@@]32CCCc3sc(N)c(C#N)c32)cc(N2C[C@H](C)N[C@@H](C)C2)n1)[C@@H]1CCCN1C [II-46] |  |  |  |  |  | 91% | 116 nM |  | 900 nM | 655 nM | 1220 nM
8 | C[C@H](Oc1cc(N2CCNC3(COC3)C2)nc(-c2onc3c2CCC[C@@]32CCCc3sc(N)c(C#N)c32)n1)[C@@H]1CCCN1C [I-4] |  |  |  |  |  | 64% | 9 nM |  | 3750 nM | 541 nM | 205 nM
9 | C[C@H](Oc1cc(-n2ccc(C(=O)O)n2)nc(-c2noc3c2CCC[C@@]32CCCc3sc(N)c(C#N)c32)n1)[C@@H]1CCCN1C [II-24] |  |  |  |  |  |  | > 25000 nM | 0.48 | 5330 nM | 9250 nM | 7420 nM
10 | C[C@H](Oc1cc(N2CCN(C)C3(CC3)C2)nc(-c2onc3c2CCC[C@@]32CCCc3sc(N)c(C#N)c32)n1)[C@@H]1CCCN1C [I-41] |  |  |  |  |  | 68% | 11 nM |  | 3560 nM | 2760 nM | 304 nM
11 | C[C@H]1CN(C)CCCN1c1cc(N2CC[C@H](N(C)C)C2)nc(-c2noc3c2CCC[C@@]32CCCc3sc(N)c(C#N)c32)n1 [II-16] |  |  |  |  |  |  | 183 nM | 0.16 | 3530 nM | 1870 nM | 1340 nM
12 | C[C@H](Oc1cc(N2CCN(CCO)CC2)nc(-c2noc3c2CCC[C@@]32CCCc3sc(N)c(C#N)c32)n1)[C@@H]1CCCN1C [II-8] |  |  |  |  |  |  | 144 nM | 0.17 | 933 nM | 692 nM | 680 nM
13 | C[C@H](Oc1cc([C@H]2CCN(C)C2)nc(-c2noc3c2CCC[C@@]32CCCc3sc(N)c(C#N)c32)n1)[C@@H]1CCCN1C [II-38] |  |  |  |  |  |  | 11 nM | 0.54 | 2590 nM | 174 nM | 74 nM
14 | C[C@H](Oc1cc(N2CCN(C)C3(COC3)C2)nc(-c2onc3c2CCC[C@@]32CCCc3sc(N)c(C#N)c32)n1)[C@@H]1C[C@@H](F)CN1C [I-37] |  |  |  |  |  | 45% | 78 nM | 0.26 |  | 1080 nM | 165 nM
15 | C[C@H](Oc1cc(N2C[C@@H](N(C)C)[C@@H](F)C2)nc(-c2noc3c2CCC[C@@]32CCCc3sc(N)c(C#N)c32)n1)[C@@H]1CCCN1C [II-11] |  |  |  |  |  |  | 85 nM | 0.89 | 3510 nM | 800 nM | 383 nM
16 | C[C@@H]1CN(c2cc(O[C@@H](C)[C@@H]3CCCN3C)nc(-c3noc4c3CCC[C@@]43CCCc4sc(N)c(C#N)c43)n2)C[C@H](C)N1 [II-36] |  |  |  |  |  |  | 64 nM | 0.57 | 3480 nM | 1120 nM | 16600 nM
17 | C[C@H](Oc1nc(-c2onc3c2CCC[C@@]32CCCc3sc(N)c(C#N)c32)cc(N2CCN(C)C3(CC3)C2)n1)[C@@H]1CCCN1C [I-40] |  |  |  |  |  | 37% | 243 nM | 0.51 |  |  | 
18 | C[C@H](Oc1cc(-c2ccc(N)nc2)nc(-c2onc3c2CCC[C@@]32CCCc3sc(N)c(C#N)c32)n1)[C@@H]1CCCN1C [I-25] |  |  |  |  |  |  | 261 nM | 0.35 | 1650 nM | 357 nM | 1060 nM
19 | C[C@H](Oc1cc(N2CCN(C)C3(CC3)C2)nc(-c2onc3c2CCC[C@@]32CCCc3sc(N)c(C#N)c32)n1)[C@@H]1C[C@@H](F)CN1C [I-39] |  |  |  |  |  | 37% | 34 nM | 0.07 |  | 2070 nM | 354 nM
20 | C[C@H](Oc1cc(N2CCN(C)C3(CCC3)C2)nc(-c2onc3c2CCC[C@@]32CCCc3sc(N)c(C#N)c32)n1)[C@@H]1CCCN1C [I-44] |  |  |  |  |  |  | 91 nM | 0.22 | 1270 nM | 1210 nM | 925 nM
21 | C[C@H](Oc1cc(N2CC[C@@H](N(C)C)C2)nc(-c2noc3c2CCC[C@@]32CCCc3sc(N)c(C#N)c32)n1)[C@@H]1CCCN1C [II-47] |  |  |  |  |  |  | 40 nM | 0.34 | 2020 nM | 600 nM | 459 nM
22 | C[C@H](Oc1cc(N2CC(N(C)C)C2)nc(-c2noc3c2CCC[C@@]32CCCc3sc(N)c(C#N)c32)n1)[C@@H]1CCCN1C [II-7] |  |  |  |  |  |  | 94 nM | 0.43 | 3500 nM | 1240 nM | 835 nM
